Target: DNA topoisomerase 2-alpha (Homo sapiens) (UniProt P11388)
Experiment: Inhibition of human DNA topoisomerase 2alpha assessed as relaxation of supercoiled pBR322 DNA at 100 uM after 30 mins using ethidium bromide staining by agarose gel electrophoresis
Conditions: not given

Sequence of DNA topoisomerase 2-alpha (Homo sapiens) (P11388 whole entry): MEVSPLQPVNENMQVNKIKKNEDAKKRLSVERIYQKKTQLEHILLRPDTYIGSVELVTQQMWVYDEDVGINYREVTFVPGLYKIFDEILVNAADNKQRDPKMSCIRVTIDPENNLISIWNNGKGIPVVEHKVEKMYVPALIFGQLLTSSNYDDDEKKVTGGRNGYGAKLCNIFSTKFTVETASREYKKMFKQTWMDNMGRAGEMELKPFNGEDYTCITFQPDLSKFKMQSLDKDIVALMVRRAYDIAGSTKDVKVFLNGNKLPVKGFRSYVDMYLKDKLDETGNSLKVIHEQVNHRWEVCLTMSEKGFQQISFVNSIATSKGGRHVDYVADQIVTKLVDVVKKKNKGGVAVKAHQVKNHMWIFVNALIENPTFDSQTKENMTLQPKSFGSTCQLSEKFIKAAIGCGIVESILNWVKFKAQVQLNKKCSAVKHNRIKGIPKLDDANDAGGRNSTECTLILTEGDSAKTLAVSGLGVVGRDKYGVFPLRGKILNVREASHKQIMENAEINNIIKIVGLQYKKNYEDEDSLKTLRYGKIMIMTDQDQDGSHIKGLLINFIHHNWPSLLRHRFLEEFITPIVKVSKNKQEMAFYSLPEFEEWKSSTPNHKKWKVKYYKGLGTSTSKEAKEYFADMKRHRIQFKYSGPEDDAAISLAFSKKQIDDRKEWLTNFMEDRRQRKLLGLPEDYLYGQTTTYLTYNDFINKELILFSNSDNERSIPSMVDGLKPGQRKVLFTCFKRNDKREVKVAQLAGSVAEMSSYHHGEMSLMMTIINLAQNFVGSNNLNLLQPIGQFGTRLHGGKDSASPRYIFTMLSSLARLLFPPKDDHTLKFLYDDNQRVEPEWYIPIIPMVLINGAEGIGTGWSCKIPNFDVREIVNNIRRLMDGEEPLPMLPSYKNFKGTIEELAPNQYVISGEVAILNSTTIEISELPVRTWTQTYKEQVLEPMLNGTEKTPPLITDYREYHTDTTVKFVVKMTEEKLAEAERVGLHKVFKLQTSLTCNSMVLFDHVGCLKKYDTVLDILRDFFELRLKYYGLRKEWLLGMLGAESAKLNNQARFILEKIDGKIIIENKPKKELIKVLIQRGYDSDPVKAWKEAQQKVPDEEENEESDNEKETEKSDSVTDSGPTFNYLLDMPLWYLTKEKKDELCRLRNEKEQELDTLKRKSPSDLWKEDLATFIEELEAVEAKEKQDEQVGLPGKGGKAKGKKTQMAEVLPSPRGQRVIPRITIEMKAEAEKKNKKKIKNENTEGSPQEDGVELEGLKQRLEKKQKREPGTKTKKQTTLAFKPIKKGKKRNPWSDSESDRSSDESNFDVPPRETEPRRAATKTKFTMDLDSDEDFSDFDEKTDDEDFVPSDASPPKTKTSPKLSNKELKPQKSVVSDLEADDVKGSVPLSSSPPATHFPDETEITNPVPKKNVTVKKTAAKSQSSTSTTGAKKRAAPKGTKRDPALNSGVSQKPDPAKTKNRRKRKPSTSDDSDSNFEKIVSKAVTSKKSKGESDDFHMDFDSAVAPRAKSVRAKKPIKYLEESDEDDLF

| inhibition [%] | SMILES |
| --- | --- |
| 91.7 | Oc1ccc(-c2cc(-c3cccs3)nc3c2COc2ccccc2-3)cc1 |
| 93.6 | Oc1ccc(-c2cc(-c3ccccc3O)c3c(n2)-c2ccccc2OC3)cc1 |
| 94.1 | Oc1ccc(-c2cc(-c3ccccc3)nc3c2COc2ccccc2-3)cc1 |
| 93.3 | Oc1cccc(-c2cc(-c3cccc(O)c3)c3c(n2)-c2ccccc2OC3)c1 |
| 91.5 | Oc1ccccc1-c1cc(-c2ccco2)nc2c1COc1ccccc1-2 |
| 97.2 | Oc1ccc(-c2cc(-c3ccc(O)cc3)c3c(n2)-c2ccccc2OC3)cc1 |

More lines, now with the values behind:

| SMILES | inhibition [%] |
| --- | --- |
| Oc1ccc(-c2cc(-c3ccco3)nc3c2COc2ccccc2-3)cc1 | 95.6 |
| Oc1cccc(-c2cc(-c3ccco3)nc3c2COc2ccccc2-3)c1 | 84.9 |
| Oc1ccc(-c2cc(-c3cccc(O)c3)c3c(n2)-c2ccccc2OC3)cc1 | 93 |
| Oc1cccc(-c2cc(-c3cccs3)nc3c2COc2ccccc2-3)c1 | 99 |
| Oc1ccccc1-c1cc(-c2ccsc2)nc2c1COc1ccccc1-2 | 100 |
| Oc1ccc(-c2cc(-c3cccc(O)c3)nc3c2COc2ccccc2-3)cc1 | 93.5 |

Target: DNA topoisomerase 2-alpha (Homo sapiens) (UniProt P11388)
Experiment: Inhibition of human DNA topoisomerase 2alpha assessed as relaxation of supercoiled pBR322 DNA at 20 uM after 30 mins using ethidium bromide staining by agarose gel electrophoresis
Conditions: not given

| inhibition [%] | SMILES |
| --- | --- |
| 25.8 | Oc1ccc(-c2cc(-c3cccs3)nc3c2COc2ccccc2-3)cc1 |
| 8 | Oc1ccc(-c2cc(-c3ccccc3O)c3c(n2)-c2ccccc2OC3)cc1 |
| 16.1 | Oc1ccc(-c2cc(-c3ccccc3)nc3c2COc2ccccc2-3)cc1 |
| 1.9 | Oc1cccc(-c2cc(-c3cccc(O)c3)c3c(n2)-c2ccccc2OC3)c1 |
| 17 | Oc1ccccc1-c1cc(-c2ccco2)nc2c1COc1ccccc1-2 |
| 10.3 | Oc1ccc(-c2cc(-c3ccc(O)cc3)c3c(n2)-c2ccccc2OC3)cc1 |

The next lines start with the compound.

| SMILES | inhibition [%] |
| --- | --- |
| Oc1ccc(-c2cc(-c3ccco3)nc3c2COc2ccccc2-3)cc1 | 6.8 |
| Oc1cccc(-c2cc(-c3ccco3)nc3c2COc2ccccc2-3)c1 | 0 |
| Oc1ccc(-c2cc(-c3cccc(O)c3)c3c(n2)-c2ccccc2OC3)cc1 | 1.8 |
| Oc1cccc(-c2cc(-c3cccs3)nc3c2COc2ccccc2-3)c1 | 41.2 |
| Oc1ccccc1-c1cc(-c2ccsc2)nc2c1COc1ccccc1-2 | 29.7 |
| Oc1ccc(-c2cc(-c3cccc(O)c3)nc3c2COc2ccccc2-3)cc1 | 7.6 |

Target: T1, DNA topoisomerase 1 (Homo sapiens) (UniProt P11387)
T1 sequence (whole entry): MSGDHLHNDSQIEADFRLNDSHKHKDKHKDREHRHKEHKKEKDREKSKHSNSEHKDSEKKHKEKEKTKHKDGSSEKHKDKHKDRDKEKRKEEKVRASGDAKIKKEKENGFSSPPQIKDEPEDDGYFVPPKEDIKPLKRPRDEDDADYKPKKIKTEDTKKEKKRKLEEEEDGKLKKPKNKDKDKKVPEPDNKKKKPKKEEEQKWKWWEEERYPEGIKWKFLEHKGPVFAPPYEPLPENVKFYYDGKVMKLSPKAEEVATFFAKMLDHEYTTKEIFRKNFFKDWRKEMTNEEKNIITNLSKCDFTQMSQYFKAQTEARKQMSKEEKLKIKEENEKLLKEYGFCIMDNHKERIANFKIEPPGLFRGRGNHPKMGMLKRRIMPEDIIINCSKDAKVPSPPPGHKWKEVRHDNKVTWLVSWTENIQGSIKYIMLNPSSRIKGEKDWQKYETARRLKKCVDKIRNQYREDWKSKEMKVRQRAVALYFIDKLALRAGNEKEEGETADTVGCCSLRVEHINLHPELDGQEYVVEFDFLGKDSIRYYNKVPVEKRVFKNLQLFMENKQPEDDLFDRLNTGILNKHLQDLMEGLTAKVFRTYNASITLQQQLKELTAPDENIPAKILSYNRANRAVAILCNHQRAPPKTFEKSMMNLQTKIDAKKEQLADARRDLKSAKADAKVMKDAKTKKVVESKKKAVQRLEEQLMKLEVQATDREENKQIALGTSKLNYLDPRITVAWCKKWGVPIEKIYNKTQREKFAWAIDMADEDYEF
Experiment: Inhibition of human recombinant DNA topoisomerase 1 assessed as relaxation of supercoiled pBR322 DNA at 100 uM after 30 mins using ethidium bromide staining by agarose gel electrophoresis
Conditions: not given

| inhibition [%] | SMILES |
| --- | --- |
| 1 | Oc1ccc(-c2cc(-c3cccs3)nc3c2COc2ccccc2-3)cc1 |
| 7.6 | Oc1ccc(-c2cc(-c3ccccc3O)c3c(n2)-c2ccccc2OC3)cc1 |
| 2.1 | Oc1ccc(-c2cc(-c3ccccc3)nc3c2COc2ccccc2-3)cc1 |
| 4.3 | Oc1cccc(-c2cc(-c3cccc(O)c3)c3c(n2)-c2ccccc2OC3)c1 |
| 3.9 | Oc1ccccc1-c1cc(-c2ccco2)nc2c1COc1ccccc1-2 |
| 2.8 | Oc1ccc(-c2cc(-c3ccc(O)cc3)c3c(n2)-c2ccccc2OC3)cc1 |

Continued, compound first:

| SMILES | inhibition [%] |
| --- | --- |
| Oc1ccc(-c2cc(-c3ccco3)nc3c2COc2ccccc2-3)cc1 | 0.5 |
| Oc1cccc(-c2cc(-c3ccco3)nc3c2COc2ccccc2-3)c1 | 1.4 |
| Oc1ccc(-c2cc(-c3cccc(O)c3)c3c(n2)-c2ccccc2OC3)cc1 | 5.3 |
| Oc1cccc(-c2cc(-c3cccs3)nc3c2COc2ccccc2-3)c1 | 6.6 |
| Oc1ccccc1-c1cc(-c2ccsc2)nc2c1COc1ccccc1-2 | 3.3 |
| Oc1ccc(-c2cc(-c3cccc(O)c3)nc3c2COc2ccccc2-3)cc1 | 1.8 |

Test system: DU-145
Experiment: Cytotoxicity against human DU145 cells after 2 days by CCK8 assay
Format: functional, cell-based
Conditions: DU-145, 48 h

| SMILES | IC50 [nM] |
| --- | --- |
| Oc1ccc(-c2cc(-c3cccs3)nc3c2COc2ccccc2-3)cc1 | 830 |
| Oc1ccc(-c2cc(-c3ccco3)nc3c2COc2ccccc2-3)cc1 | 4450 |
| Oc1cccc(-c2cc(-c3ccco3)nc3c2COc2ccccc2-3)c1 | 3100 |
| Oc1ccc(-c2cc(-c3ccccc3O)c3c(n2)-c2ccccc2OC3)cc1 | 1950 |
| Oc1ccc(-c2cc(-c3ccccc3)nc3c2COc2ccccc2-3)cc1 | 1560 |
| Oc1cccc(-c2cc(-c3cccc(O)c3)c3c(n2)-c2ccccc2OC3)c1 | 1580 |
| Oc1ccc(-c2cc(-c3cccc(O)c3)c3c(n2)-c2ccccc2OC3)cc1 | 2060 |
| Oc1cccc(-c2cc(-c3cccs3)nc3c2COc2ccccc2-3)c1 | 860 |
| Oc1ccccc1-c1cc(-c2ccsc2)nc2c1COc1ccccc1-2 | 740 |
| Oc1ccccc1-c1cc(-c2ccco2)nc2c1COc1ccccc1-2 | 2450 |
| Oc1ccc(-c2cc(-c3ccc(O)cc3)c3c(n2)-c2ccccc2OC3)cc1 | 3800 |
| Oc1ccc(-c2cc(-c3cccc(O)c3)nc3c2COc2ccccc2-3)cc1 | 810 |

Test system: HCT-15
Experiment: Cytotoxicity against human HCT15 cells after 2 days by CCK8 assay
Format: functional, cell-based
Conditions: HCT-15, 48 h

| SMILES | IC50 [nM] |
| --- | --- |
| Oc1ccc(-c2cc(-c3cccs3)nc3c2COc2ccccc2-3)cc1 | 1520 |
| Oc1ccc(-c2cc(-c3ccco3)nc3c2COc2ccccc2-3)cc1 | 1230 |
| Oc1cccc(-c2cc(-c3ccco3)nc3c2COc2ccccc2-3)c1 | 4770 |
| Oc1ccc(-c2cc(-c3ccccc3O)c3c(n2)-c2ccccc2OC3)cc1 | 1660 |
| Oc1ccc(-c2cc(-c3ccccc3)nc3c2COc2ccccc2-3)cc1 | 15100 |
| Oc1cccc(-c2cc(-c3cccc(O)c3)c3c(n2)-c2ccccc2OC3)c1 | 4110 |
| Oc1ccc(-c2cc(-c3cccc(O)c3)c3c(n2)-c2ccccc2OC3)cc1 | 2980 |
| Oc1cccc(-c2cc(-c3cccs3)nc3c2COc2ccccc2-3)c1 | 3170 |
| Oc1ccccc1-c1cc(-c2ccsc2)nc2c1COc1ccccc1-2 | 3170 |
| Oc1ccccc1-c1cc(-c2ccco2)nc2c1COc1ccccc1-2 | 2010 |
| Oc1ccc(-c2cc(-c3ccc(O)cc3)c3c(n2)-c2ccccc2OC3)cc1 | 690 |
| Oc1ccc(-c2cc(-c3cccc(O)c3)nc3c2COc2ccccc2-3)cc1 | 550 |

Test system: T47D
Experiment: Cytotoxicity against human T47D cells after 2 days by CCK8 assay
Format: functional, cell-based
Conditions: 48 h

| SMILES | IC50 [nM] |
| --- | --- |
| Oc1ccc(-c2cc(-c3cccs3)nc3c2COc2ccccc2-3)cc1 | 1210 |
| Oc1ccc(-c2cc(-c3ccco3)nc3c2COc2ccccc2-3)cc1 | 850 |
| Oc1cccc(-c2cc(-c3ccco3)nc3c2COc2ccccc2-3)c1 | 3590 |
| Oc1ccc(-c2cc(-c3ccccc3O)c3c(n2)-c2ccccc2OC3)cc1 | 2090 |
| Oc1ccc(-c2cc(-c3ccccc3)nc3c2COc2ccccc2-3)cc1 | 1350 |
| Oc1cccc(-c2cc(-c3cccc(O)c3)c3c(n2)-c2ccccc2OC3)c1 | 1770 |
| Oc1ccc(-c2cc(-c3cccc(O)c3)c3c(n2)-c2ccccc2OC3)cc1 | 2370 |
| Oc1cccc(-c2cc(-c3cccs3)nc3c2COc2ccccc2-3)c1 | 2240 |
| Oc1ccccc1-c1cc(-c2ccsc2)nc2c1COc1ccccc1-2 | 2740 |
| Oc1ccccc1-c1cc(-c2ccco2)nc2c1COc1ccccc1-2 | 2980 |
| Oc1ccc(-c2cc(-c3ccc(O)cc3)c3c(n2)-c2ccccc2OC3)cc1 | 780 |
| Oc1ccc(-c2cc(-c3cccc(O)c3)nc3c2COc2ccccc2-3)cc1 | 670 |

Test system: not listed separately
Experiment: Cytotoxicity against human MCF10A cells after 2 days by CCK8 assay
Format: cell-based
Conditions: MCF-10A, 48 h

| SMILES | IC50 [nM] |
| --- | --- |
| Oc1ccc(-c2cc(-c3cccs3)nc3c2COc2ccccc2-3)cc1 | 6240 |
| Oc1ccc(-c2cc(-c3ccco3)nc3c2COc2ccccc2-3)cc1 | 6880 |
| Oc1cccc(-c2cc(-c3ccco3)nc3c2COc2ccccc2-3)c1 | 8800 |
| Oc1ccc(-c2cc(-c3ccccc3O)c3c(n2)-c2ccccc2OC3)cc1 | 2740 |
| Oc1ccc(-c2cc(-c3ccccc3)nc3c2COc2ccccc2-3)cc1 | 6350 |
| Oc1cccc(-c2cc(-c3cccc(O)c3)c3c(n2)-c2ccccc2OC3)c1 | 5810 |
| Oc1ccc(-c2cc(-c3cccc(O)c3)c3c(n2)-c2ccccc2OC3)cc1 | 4640 |
| Oc1cccc(-c2cc(-c3cccs3)nc3c2COc2ccccc2-3)c1 | 6440 |
| Oc1ccccc1-c1cc(-c2ccsc2)nc2c1COc1ccccc1-2 | 7170 |
| Oc1ccccc1-c1cc(-c2ccco2)nc2c1COc1ccccc1-2 | 7980 |
| Oc1ccc(-c2cc(-c3ccc(O)cc3)c3c(n2)-c2ccccc2OC3)cc1 | 1900 |
| Oc1ccc(-c2cc(-c3cccc(O)c3)nc3c2COc2ccccc2-3)cc1 | 2420 |

From ChEMBL document CHEMBL3611987, “Design and synthesis of conformationally constrained hydroxylated 4-phenyl-2-aryl chromenopyridines as novel and selective topoisomerase II-targeted antiproliferative agents” (Bioorg Med Chem, 2015)
